SMILES	melting point [°C]
Cc1nc2cccc(OCC(C)(C)NC(=O)c3cccc(O)c3)c2c(N)c1C(=O)O	195 to 198
Cc1cccc(OC2SCC(O)C(O)C2O)n1 (centres undefined)	54
COc1ccc(C=Cc2cc(OC)c(OC)c(OC)c2)cc1OC	150 to 152
Cc1nc(C=Cc2nc3ccc(F)cc3c(=O)n2-c2cccnc2C)cs1	223 to 224
CN(c1cccc2cc(C3=NCC(CN4CCOCC4)S3)[nH]c12)S(=O)(=O)c1cccnc1 (centres undefined)	234 to 236
CC(=O)OCC1OC(n2cc(C)c(=S)[nH]c2=S)CC1F (centres undefined)	113 to 114
O=C(Nc1ccc(C(F)(F)F)cc1)OCC1(COC(=O)Nc2ccc(C(F)(F)F)cc2)CSc2ccccc2C1=O	76 to 82
COc1ccc(Cc2sc3ccccc3c2-c2ccc(-c3ccc(OC(Cc4ccccc4)C(=O)O)cc3)cc2)cc1OC (centres undefined)	59 to 61
CCN(CC)C(C#N)c1ccc(OCc2ccccc2)cc1 (centres undefined)	75 to 76
CNC(=O)NC1CCCCC1	135 to 136
CC(=O)Nc1ccc2cccc(N3CCN(C)CC3)c2c1	173 to 177
COc1ccccc1N1CCN(Cc2cnc(N)nc2N)CC1	195 to 196
CCCCCCCCOc1cc(CBr)c(OCCCCCCCC)cc1CBr	83
Cc1n[nH]c2c(C(=O)NC3(C4CC4)CC3)c(NC(=O)c3cc(C(F)(F)F)nn3-c3ncccc3Cl)c(Cl)cc12	228 to 229
Cc1cc2nc(Cl)cc(N)c2[nH]1	270
CCCN(CCC)C(=O)COC1Cc2cccc(OCC(O)CNC(C)(C)C)c2CC1OCC(=O)N(CCC)CCC (centres undefined)	124 to 134
CCOc1cc(N)c([N+](=O)[O-])cc1C(=O)OC	210
CN1C(=O)[C@H](NC(=O)Nc2cccc(CC(=O)O)c2)N=C(c2ccccc2)c2ccccc21	167 to 170
COc1cc(C=NN(C)C)c([N+](=O)[O-])cc1OC	143 to 145
CC(=O)NCC(=O)NCC1(S)C2CC3CC(C2)CC1C3 (centres undefined)	154 to 157
CNC(=O)c1c(I)c(N)c(I)c(N(CCO)C(C)=O)c1I	197
CC1(CCl)C(C(=O)OCC(Cl)(Cl)Cl)N2C(=O)C(NC(=O)Cc3ccccc3)C2S1=O (centres undefined)	130 to 131

SMILES	melting point [°C]
Cc1cc2c(cc1C#Cc1ccccc1)NC(=O)CC(c1cccc(-c3nccn3C)c1)=N2	202 to 205
COC(=O)c1c(C(F)(F)F)nc(C(F)(F)F)c(C(=O)OC)c1[Si](C)(C)C	29 to 31
CN1CC(CN2CC(=O)NC2=O)CC2c3cccc4[nH]cc(c34)CC21 (centres undefined)	199 to 201
Cc1ccccc1-n1nnc2cnc3ccccc3c21	140 to 142
CC(C)(C)C#CC(O)C#CC(C)(C)C	67 to 70
Cc1c(CCc2ccc3nc(N)oc3c2)nc2cc(CN)ccn12	218 to 221
CC(=O)OC1CSC(Oc2cc(-c3cncnc3)cnc2F)C(OC(C)=O)C1OC(C)=O (centres undefined)	96 to 97
COc1ccc2c(c1)CN(c1ccc3sccc3c1)C2=O	183 to 186
Oc1cc(-c2cccc(C(F)(F)F)c2)nc2ccnn12	305 to 310
CCOC(=O)COC(=O)Cc1ccc2cc(OC)ccc2c1	38 to 40
CCOC(=O)c1cc2cc(Oc3ccc(S(C)(=O)=O)cc3)cc(OC)c2[nH]1	161 to 162
OC(CN1CCC(O)(Cc2ccccc2)CC1)c1ccc(F)cc1 (centres undefined)	144 to 146
CSc1sccc1C#N	112 to 115
O=C(CSc1ccc(O)cc1)NC(=O)c1ccccc1	149 to 151
Cn1cnnc1COc1nn2c(-c3ccccc3)nnc2cc1-c1ccccc1	230 to 235
NS(=O)(=O)Oc1ccc(C(=O)c2ccccc2)cc1	131 to 133
COC(=O)c1cc(O)n[nH]1	229 to 231
N#Cc1ccc(-c2cc(-c3ccc(C#N)cc3[N+](=O)[O-])on2)cc1	280 to 281
OC1CCN(c2ccc(Br)cn2)CC1	91 to 93
CCCCCP(=O)(O)CCCN	232 to 236
Oc1ccc2c(nc(C(F)F)n2-c2nc(N3CCOCC3)nc(N3CCOCC3)n2)c1Cl	> 250
CC(C)S(=O)(=O)c1ccc(S(=O)(=O)C(C)C)nc1	181

The remaining lines, values ahead:

melting point [°C]	SMILES
104 to 106	CCCC1=CC(NC)=Nc2ccc(Cl)cc2C(c2ccccc2)=[N+]1[O-]
88 to 89	CC(C)C[C@H](NC(=O)N1CCCCCC1)C(=O)O
237 to 238	O=C(O)Cn1c(=S)c2ccccc2n(Cc2ccc(Cl)c(Cl)c2)c1=O
153 to 155	CC(C)c1cccc(C(C)C)c1NC(=O)N(Cc1ccccc1)CC(c1ccccc1)c1ccccc1
112 to 113	CCC(C)C1CCCCC1NC(=O)c1sc(C)nc1C(F)(F)F (centres undefined)
227 to 228	Cc1cc(C(=O)Nc2cnccc2C)c2c(C)nn(-c3ccccc3)c2n1
242 to 244	O=C(c1ccccc1C(c1ccc(O)cc1)c1ccc(O)cc1)N1CCCCC1
203 to 208	CCOC(=O)c1cn(C)c2c(=O)oc3ccccc3c2c1=O
130 to 132	CCn1nc(OCCCc2ccc(OCCOC(C)C)cc2Oc2ncc(C(F)(F)F)cc2Cl)cc1CCC(=O)O
122 to 123	O=C1/C(=C(\NC2CCCCC2)c2ccccc2)Sc2ccccc21
109 to 111	CC(C)NC(=O)N(Nc1cccc(Cl)c1Cl)C1=CCCN1
110 to 111	Cc1ccc(S(=O)(=O)Nc2ccc(Cl)cc2[N+](=O)[O-])cc1
100 to 101	CCOCCOc1ccc(C(O)CNC(C)CCc2ccccc2)cc1C(=O)OC (centres undefined)
189 to 191	O=C(O)C1CCc2c(oc3cc(Cl)ccc23)C1 (centres undefined)
219 to 222	CCN1C(=O)Nc2ccc(Cl)cc2C1(C#CC1(C)CC1)C(F)(F)F (centres undefined)
130 to 131	COC(=O)c1ccc(-c2cc[nH]n2)cc1Cl
60 to 62	COC(=O)CCCSC(=S)NCc1ccc(Cl)cc1
95 to 98	Cc1nc(Cl)cc(-c2ccc(F)cc2)n1
122 to 124	COC(=O)C(C)NC(=O)CCc1ccc(C(=O)CCl)cc1 (centres undefined)
115 to 120	CC(Oc1cccc(-c2ccc(Cl)c(C(=O)NCC34CC5CC(CC(C5)C3)C4)c2)c1)C(=O)O (centres undefined)
215	CCOC(=O)c1nc(-c2ccc(N3CCOCC3)cc2)[nH]c1-c1ccc(Cl)cc1
158 to 160	N#Cc1ccc(NCc2cc3c(cc2O)CCO3)s1
133 to 134	COC(=O)c1c(C=O)n(C)c2ccc(OC)cc12
122 to 123	O=Cc1ccc(CNc2ccccn2)c(Cl)c1
248 to 249	CC(C)(C)OC(=O)NC(CC(=O)Nc1n[nH]c(=S)s1)c1ccccc1 (centres undefined)
134 to 136	COc1cc(NC2CCCCC2)c2ccccc2c1OC(C)=O
163 to 165	CCOC(=O)c1ccc(NC(=O)CCc2ccc(Cl)cc2)cc1
270 to 272	COc1ccc(Nc2nc3ccccc3c(=O)[nH]2)c(C)c1
231 to 234	O=C(CCc1ccccc1)Nc1c(Cl)ccc2nc(N3CCNCC3)ccc12
194 to 197	Cc1cccc(OC(=O)C(=O)c2c[nH]c3ccccc23)c1
